# Experimental data published in US20100069458A1, “COMBINATION OF LBH589 WITH OTHER THERAPEUTIC AGENTS FOR TREATING CANCER” (priority 2007, published 2010).
# Like-named read-outs stand apart in the source and are kept apart here.
# Legend:
# [1] = Loss of viability, trypan blue uptake; format: cell-based; conditions: human, Normal CD34+ cells
# MV4-11 cells [2] = experiment: Apoptosis, annexin V flow cytometry; conditions: 20 to 50 nM, dose-dependently, FIG. 1
# Description: Following this, the percentages of annexin V-positive apoptotic cells were determined by flow cytometry. Values represent the mean±S.E.M. of three experiments.
# U937 cells = experiment: Apoptosis; format: cell-based, human; conditions: 20 to 50 nM, dose-dependently
# primary AML cells = experiment: Loss of viability, trypan blue uptake; format: cell-based; conditions: Homo sapiens
# [3] = system: FLT-3, p-STAT5, AKT, CDK4, hsp70 levels in MV4-11 cells; experiment: hsp90 client protein levels; format: cell-based, human; conditions: AUY922 alone
# MV4-11 cells [4] = experiment: Cell cycle status, propidium iodide flow cytometry; format: cell-based, human; conditions: for % of cells G0/G1 / % of cells G2/M / % of cells S: MV4-11, 24 hours, mean ± S.E.M.
# K562 cells [5] = experiment: Apoptosis; conditions: 50-100 nM
# Description: FIG. 2 Analysis of dose effect relationship for AUY922 and LBH589 for the apoptotic effects after 48 hours of exposure was done according to the median effect of Chou and Talalay.
# primary CML cells = experiment: Loss of viability, trypan blue uptake; format: cell-based; conditions: Homo sapiens, 48 h
# K562 cells [6] = experiment: Cell cycle status, propidium iodide flow cytometry; format: cell-based, human; conditions: for % of cells G0/G1 / % of cells G2/M / % of cells S: K562, 24 hours, mean ± S.E.M.
# [7] = system: Bcr-Abl, p-STAT5, p-CrkL, AKT levels in K562 cells; experiment: hsp90 client protein levels; format: cell-based, human; conditions: 50-100 nM of AUY922
# [8] = system: hsp90 chaperone function in CML cells; conditions: previous studies, cited from earlier work
compound,measurement,setting,value
"CCNC(=O)c1noc(-c2cc(C(C)C)c(O)cc2O)c1-c1ccc(CN2CCOCC2)cc1 [AUY922, 5-(2,4-Dihydroxy-5-isopropyl-phenyl)-4-(4-morpholin-4-ylmethyl-phenyl)-isoxazole-3-carboxylic acid ethylamide]","cytotoxicity at 48 h, 20 nmol/L","[1]; 20 nmol/L AUY922, read-out: % non-viable cells",30.8%
same,"cytotoxicity at 48 h, 50 nmol/L","[1]; 50 nmol/L AUY922, read-out: % non-viable cells",31.6%
same,"induced apoptosis, % of cells",MV4-11 cells [2],40-60%
same,"induced apoptosis, % of cells",U937 cells,40-60%
same,cytotoxicity at 0.02 µM,"primary AML cells; 48 h, AML#2, 20 nmol/L AUY922, read-out: % non-viable cells",54%
same,cytotoxicity at 0.05 µM,"primary AML cells; 48 h, AML#2, 50 nmol/L AUY922, read-out: % non-viable cells",58.9%
same,cytotoxicity at 0.02 µM,"primary AML cells; 48 h, AML#4, 20 nmol/L AUY922, read-out: % non-viable cells",43.2%
same,cytotoxicity at 0.05 µM,"primary AML cells; 48 h, AML#4, 50 nmol/L AUY922, read-out: % non-viable cells",50%
same,cytotoxicity at 0.02 µM,"primary AML cells; 48 h, AML#5, 20 nmol/L AUY922, read-out: % non-viable cells",32.1%
same,cytotoxicity at 0.05 µM,"primary AML cells; 48 h, AML#5, 50 nmol/L AUY922, read-out: % non-viable cells",27.7%
same,cytotoxicity at 0.02 µM,"primary AML cells; 48 h, AML#6, 20 nmol/L AUY922, read-out: % non-viable cells",11.9%
same,cytotoxicity at 0.05 µM,"primary AML cells; 48 h, AML#6, 50 nmol/L AUY922, read-out: % non-viable cells",21.4%
same,cytotoxicity at 0.02 µM,"primary AML cells; 48 h, AML#7 CD34 enriched, 20 nmol/L AUY922, read-out: % non-viable cells",70.1%
same,cytotoxicity at 0.05 µM,"primary AML cells; 48 h, AML#7 CD34 enriched, 50 nmol/L AUY922, read-out: % non-viable cells",70.9%
same,cytotoxicity at 0.02 µM,"primary AML cells; AML1, 48 h, AML#1, 20 nmol/L AUY922, read-out: % non-viable cells",38.8%
same,cytotoxicity at 0.05 µM,"primary AML cells; AML1, 48 h, AML#1, 50 nmol/L AUY922, read-out: % non-viable cells",45.1%
same,cytotoxicity at 0.02 µM,"primary AML cells; AML3, 48 h, AML#3, 20 nmol/L AUY922, read-out: % non-viable cells",40.1%
same,cytotoxicity at 0.05 µM,"primary AML cells; AML3, 48 h, AML#3, 50 nmol/L AUY922, read-out: % non-viable cells",42.7%
same,client protein levels,[3],"depletion of FLT-3, p-STAT5, AKT, and CDK4 levels"
same,hsp70 levels,[3],induction of hsp70 levels
same,% of cells G0/G1,MV4-11 cells [4]; 5 nM,62.23 ± 0.33%
same,% of cells G2/M,MV4-11 cells [4]; 5 nM,6.02 ± 0.74%
same,% of cells S,MV4-11 cells [4]; 5 nM,31.74 ± 0.42%
same,% of cells G0/G1,MV4-11 cells [4]; 10 nM,63.54 ± 1.20%
same,% of cells G2/M,MV4-11 cells [4]; 10 nM,6.30 ± 0.92%
same,% of cells S,MV4-11 cells [4]; 10 nM,30.16 ± 0.39%
same,% of cells G0/G1,MV4-11 cells [4]; 20 nM,85.71 ± 2.14%
same,% of cells G2/M,MV4-11 cells [4]; 20 nM,5.30 ± 0.71%
same,% of cells S,MV4-11 cells [4]; 20 nM,8.98 ± 2.41%
same,% of cells G0/G1,MV4-11 cells [4]; 50 nM,79.57 ± 1.15%
same,% of cells G2/M,MV4-11 cells [4]; 50 nM,11.96 ± 1.26%
same,% of cells S,MV4-11 cells [4]; 50 nM,8.47 ± 2.30%
same,"accumulation in G1 and G2/M phases, decline in S phase",MV4-11 cells [4]; MV4-11 cells,dose-dependently induced accumulation
same,"induced apoptosis, % of cells",K562 cells [5],30-50%
same,cytotoxicity at 0.02 µM,"primary CML cells; CML#1, 20 nmol/L AUY922, read-out: % non-viable cells",29.1%
same,cytotoxicity at 0.05 µM,"primary CML cells; CML#1, 50 nmol/L AUY922, read-out: % non-viable cells",33.6%
same,cytotoxicity at 0.02 µM,"primary CML cells; CML#2, 20 nmol/L AUY922, read-out: % non-viable cells",9.6%
same,cytotoxicity at 0.05 µM,"primary CML cells; CML#2, 50 nmol/L AUY922, read-out: % non-viable cells",13.9%
same,cytotoxicity at 0.02 µM,"primary CML cells; CML#3, 20 nmol/L AUY922, read-out: % non-viable cells",21.1%
same,cytotoxicity at 0.05 µM,"primary CML cells; CML#3, 50 nmol/L AUY922, read-out: % non-viable cells",25.3%
same,cytotoxicity at 0.02 µM,"primary CML cells; CML#4, 20 nmol/L AUY922, read-out: % non-viable cells",30.5%
same,cytotoxicity at 0.05 µM,"primary CML cells; CML#4, 50 nmol/L AUY922, read-out: % non-viable cells",32.8%
same,% of cells G0/G1,K562 cells [6]; 20 nM,31.04 ± 3.11%
same,% of cells G2/M,K562 cells [6]; 20 nM,8.54 ± 1.16%
same,% of cells S,K562 cells [6]; 20 nM,60.41 ± 2.01%
same,% of cells G0/G1,K562 cells [6]; 50 nM,61.42 ± 5.30%
same,% of cells G2/M,K562 cells [6]; 50 nM,4.43 ± 2.78%
same,% of cells S,K562 cells [6]; 50 nM,34.14 ± 5.01%
same,% of cells G0/G1,K562 cells [6]; 100 nM,58.30 ± 2.87%
same,% of cells G2/M,K562 cells [6]; 100 nM,21.73 ± 2.67%
same,% of cells S,K562 cells [6]; 100 nM,19.97 ± 0.31%
same,% of cells G0/G1,K562 cells [6]; 250 nM,58.10 ± 4.47%
same,% of cells G2/M,K562 cells [6]; 250 nM,21.38 ± 3.07%
same,% of cells S,K562 cells [6]; 250 nM,20.47 ± 1.54%
same,"accumulation in G1 and G2/M phases, decline in S phase",K562 cells [6]; K562 cells,dose-dependently induced accumulation
same,client protein levels,[7],"depleted Bcr-Abl, p-STAT, p-CrkL and AKT levels"
"Cc1[nH]c2ccccc2c1CCNCc1ccc(/C=C/C(=O)NO)cc1 [LBH589, N-hydroxy-3-[4-[[[2-(2-methyl-1H-indol-3-yl)-ethyl]-amino]methyl]phenyl]-2E-2-propenamide]","cytotoxicity at 48 h, 50 nmol/L","[1]; 50 nmol/L LBH589, read-out: % non-viable cells",23.3%
same,cytotoxicity at 0.05 µM,"primary AML cells; 48 h, AML#2, 50 nmol/L LBH589, read-out: % non-viable cells",54.7%
same,cytotoxicity at 0.05 µM,"primary AML cells; 48 h, AML#4, 50 nmol/L LBH589, read-out: % non-viable cells",53.8%
same,cytotoxicity at 0.05 µM,"primary AML cells; 48 h, AML#5, 50 nmol/L LBH589, read-out: % non-viable cells",61.8%
same,cytotoxicity at 0.05 µM,"primary AML cells; 48 h, AML#6, 50 nmol/L LBH589, read-out: % non-viable cells",17.8%
same,cytotoxicity at 0.05 µM,"primary AML cells; 48 h, AML#7 CD34 enriched, 50 nmol/L LBH589, read-out: % non-viable cells",56.7%
same,cytotoxicity at 0.05 µM,"primary AML cells; AML1, 48 h, AML#1, 50 nmol/L LBH589, read-out: % non-viable cells",80.7%
same,cytotoxicity at 0.05 µM,"primary AML cells; AML3, 48 h, AML#3, 50 nmol/L LBH589, read-out: % non-viable cells",46.3%
same,client protein levels,[8]; CML cells,"depletion of unmutated or mutant forms of Bcr-Abl, as well as of c-Raf and AKT"
same,hsp90 acetylation and chaperone function,[8]; by inhibiting HDAC 6,induces acetylation and inhibition of hsp90 chaperone function
same,cytotoxicity at 0.05 µM,"primary CML cells; CML#1, 50 nmol/L LBH589, read-out: % non-viable cells",43.3%
same,cytotoxicity at 0.05 µM,"primary CML cells; CML#2, 50 nmol/L LBH589, read-out: % non-viable cells",21.4%
same,cytotoxicity at 0.05 µM,"primary CML cells; CML#3, 50 nmol/L LBH589, read-out: % non-viable cells",47.8%
same,cytotoxicity at 0.05 µM,"primary CML cells; CML#4, 50 nmol/L LBH589, read-out: % non-viable cells",37.6%
